Key:
D(2) dopamine receptor = D(2) dopamine receptor (Rattus norvegicus, UniProt P61169); experiment: Binding affinity towards dopamine receptor D2 using [3H]-raclopride radioligand.
[1] = target: T1, 5-hydroxytryptamine receptor 1A (Rattus norvegicus, UniProt P19327); experiment: Binding affinity towards rat 5-hydroxytryptamine 1A receptor using [3H]8-OH-DPAT radioligand.
T1 sequence (P19327 whole entry): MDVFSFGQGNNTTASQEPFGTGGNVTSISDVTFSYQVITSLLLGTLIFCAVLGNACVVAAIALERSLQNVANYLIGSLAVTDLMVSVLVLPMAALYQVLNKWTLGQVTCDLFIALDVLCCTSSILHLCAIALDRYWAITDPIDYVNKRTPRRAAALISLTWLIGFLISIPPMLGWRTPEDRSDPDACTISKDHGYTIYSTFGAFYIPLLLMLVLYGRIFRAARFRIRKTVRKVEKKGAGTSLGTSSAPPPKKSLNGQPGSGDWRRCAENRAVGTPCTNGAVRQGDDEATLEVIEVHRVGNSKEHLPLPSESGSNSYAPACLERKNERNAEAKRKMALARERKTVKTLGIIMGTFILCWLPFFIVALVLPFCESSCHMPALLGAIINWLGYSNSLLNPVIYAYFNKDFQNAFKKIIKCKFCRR

Sequence of D(2) dopamine receptor (P61169 whole entry): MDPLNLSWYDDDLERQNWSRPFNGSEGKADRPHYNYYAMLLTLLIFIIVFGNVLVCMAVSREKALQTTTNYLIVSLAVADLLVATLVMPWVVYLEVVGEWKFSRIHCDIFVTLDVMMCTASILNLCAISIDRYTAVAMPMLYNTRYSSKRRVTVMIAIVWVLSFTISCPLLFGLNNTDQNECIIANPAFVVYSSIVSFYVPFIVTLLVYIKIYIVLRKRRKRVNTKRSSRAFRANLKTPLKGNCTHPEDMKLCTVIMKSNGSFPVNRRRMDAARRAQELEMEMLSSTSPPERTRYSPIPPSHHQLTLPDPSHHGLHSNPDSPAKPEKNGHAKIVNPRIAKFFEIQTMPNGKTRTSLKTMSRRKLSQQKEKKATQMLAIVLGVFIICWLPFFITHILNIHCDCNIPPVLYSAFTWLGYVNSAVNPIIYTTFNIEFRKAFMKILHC

Compound	Ki (D(2) dopamine receptor) [nM]	Ki [1] [nM]
O=c1n(CCN2CCN(c3ccc(F)cc3)CC2)c(O)c2n1CCCC2 [2-{2-[4-(4-Fluoro-phenyl)-piperazin-1-yl]-ethyl}-tetrahydro-imidazo[1,5-a]pyridine-1,3-dione]	> 10000	> 10000
O=c1n(CCCCN2CCN(c3cccc(C(F)(F)F)c3)CC2)c(O)c2n1CCC2 [2-{4-[4-(3-Trifluoromethyl-phenyl)-piperazin-1-yl]-butyl}-tetrahydro-pyrrolo[1,2-c]imidazole-1,3-dione]	> 1000	–
COc1ccccc1N1CCN(CCCn2c(O)c3n(c2=O)CCCC3)CC1 [2-{3-[4-(2-Methoxy-phenyl)-piperazin-1-yl]-propyl}-tetrahydro-imidazo[1,5-a]pyridine-1,3-dione]	> 1000	–
COc1ccccc1N1CCN(CCCCn2c(O)c3n(c2=O)CCCC3)CC1 [2-{4-[4-(2-Methoxy-phenyl)-piperazin-1-yl]-butyl}-tetrahydro-imidazo[1,5-a]pyridine-1,3-dione]	> 1000	–
O=c1n(CCN2CCN(c3cccc(Cl)c3)CC2)c(O)c2n1CCC2 [2-{2-[4-(3-Chloro-phenyl)-piperazin-1-yl]-ethyl}-tetrahydro-pyrrolo[1,2-c]imidazole-1,3-dione]	> 1000	–
O=c1n(CCCN2CCN(c3cccc(C(F)(F)F)c3)CC2)c(O)c2n1CCCC2 [2-{3-[4-(3-Trifluoromethyl-phenyl)-piperazin-1-yl]-propyl}-tetrahydro-imidazo[1,5-a]pyridine-1,3-dione]	> 1000	–
COc1ccccc1N1CCN(CCCn2c(O)c3n(c2=O)CCC3)CC1 [2-{3-[4-(2-Methoxy-phenyl)-piperazin-1-yl]-propyl}-tetrahydro-pyrrolo[1,2-c]imidazole-1,3-dione]	> 1000	–
O=c1n(CCCN2CCN(c3cccc(Cl)c3)CC2)c(O)c2n1CCC2 [2-{3-[4-(3-Chloro-phenyl)-piperazin-1-yl]-propyl}-tetrahydro-pyrrolo[1,2-c]imidazole-1,3-dione]	> 1000	–
O=c1n(CCCN2CCN(c3cccc(Cl)c3)CC2)c(O)c2n1CCCC2 [2-{3-[4-(3-Chloro-phenyl)-piperazin-1-yl]-propyl}-tetrahydro-imidazo[1,5-a]pyridine-1,3-dione]	> 1000	–
O=c1n(CCCN2CCN(c3ccccc3)CC2)c(O)c2n1CCC2 [2-[3-(4-Phenyl-piperazin-1-yl)-propyl]-tetrahydro-pyrrolo[1,2-c]imidazole-1,3-dione]	> 1000	–
O=c1n(CCN2CCN(c3ccc([N+](=O)[O-])cc3)CC2)c(O)c2n1CCCC2 [2-{2-[4-(4-Nitro-phenyl)-piperazin-1-yl]-ethyl}-tetrahydro-imidazo[1,5-a]pyridine-1,3-dione]	> 10000	> 10000
O=c1n(CCN2CCN(c3cccc(C(F)(F)F)c3)CC2)c(O)c2n1CCC2 [2-{2-[4-(3-Trifluoromethyl-phenyl)-piperazin-1-yl]-ethyl}-tetrahydro-pyrrolo[1,2-c]imidazole-1,3-dione]	> 1000	–
O=c1n(CCCN2CCN(c3ccc([N+](=O)[O-])cc3)CC2)c(O)c2n1CCCC2 [2-{3-[4-(4-Nitro-phenyl)-piperazin-1-yl]-propyl}-tetrahydro-imidazo[1,5-a]pyridine-1,3-dione]	> 10000	> 10000
O=c1n(CCCN2CCN(c3ccccc3)CC2)c(O)c2n1CCCC2 [2-[3-(4-Phenyl-piperazin-1-yl)-propyl]-tetrahydro-imidazo[1,5-a]pyridine-1,3-dione]	> 1000	–
O=c1n(CN2CCN(c3ccc([N+](=O)[O-])cc3)CC2)c(O)c2n1CCC2 [2-[4-(4-Nitro-phenyl)-piperazin-1-ylmethyl]-tetrahydro-pyrrolo[1,2-c]imidazole-1,3-dione]	> 10000	> 1000
O=c1n(CN2CCN(c3ccc([N+](=O)[O-])cc3)CC2)c(O)c2n1CCCC2 [2-[4-(4-Nitro-phenyl)-piperazin-1-ylmethyl]-tetrahydro-imidazo[1,5-a]pyridine-1,3-dione]	> 10000	> 1000
O=c1n(CCCN2CCN(c3ccc(F)cc3)CC2)c(O)c2n1CCC2 [2-{3-[4-(4-Fluoro-phenyl)-piperazin-1-yl]-propyl}-tetrahydro-pyrrolo[1,2-c]imidazole-1,3-dione]	> 1000	> 1000
O=c1n(CN2CCN(c3ccccc3)CC2)c(O)c2n1CCCC2 [2-(4-Phenyl-piperazin-1-ylmethyl)-tetrahydro-imidazo[1,5-a]pyridine-1,3-dione]	> 10000	–
COc1ccccc1N1CCN(Cn2c(O)c3n(c2=O)CCC3)CC1 [2-[4-(2-Methoxy-phenyl)-piperazin-1-ylmethyl]-tetrahydro-pyrrolo[1,2-c]imidazole-1,3-dione]	> 1000	–
O=c1n(CCN2CCN(c3ccc(F)cc3)CC2)c(O)c2n1CCC2 [2-{2-[4-(4-Fluoro-phenyl)-piperazin-1-yl]-ethyl}-tetrahydro-pyrrolo[1,2-c]imidazole-1,3-dione]	> 10000	> 10000

Compound	Ki (D(2) dopamine receptor) [nM]	Ki [1] [nM]
O=c1n(CN2CCN(c3cccc(C(F)(F)F)c3)CC2)c(O)c2n1CCC2 [2-[4-(3-Trifluoromethyl-phenyl)-piperazin-1-ylmethyl]-tetrahydro-pyrrolo[1,2-c]imidazole-1,3-dione]	> 1000	–
O=c1n(CCCCN2CCN(c3ccc([N+](=O)[O-])cc3)CC2)c(O)c2n1CCCC2 [2-{4-[4-(4-Nitro-phenyl)-piperazin-1-yl]-butyl}-tetrahydro-imidazo[1,5-a]pyridine-1,3-dione]	> 1000	> 1000
O=c1n(CCN2CCN(c3cccc(Cl)c3)CC2)c(O)c2n1CCCC2 [2-{2-[4-(3-Chloro-phenyl)-piperazin-1-yl]-ethyl}-tetrahydro-imidazo[1,5-a]pyridine-1,3-dione]	> 1000	–
O=c1n(CN2CCN(c3ccc(F)cc3)CC2)c(O)c2n1CCCC2 [2-[4-(4-Fluoro-phenyl)-piperazin-1-ylmethyl]-tetrahydro-imidazo[1,5-a]pyridine-1,3-dione]	> 10000	–
O=c1n(CCCN2CCN(c3ccc(F)cc3)CC2)c(O)c2n1CCCC2	> 1000	–
O=c1n(CCCCN2CCN(c3ccccc3)CC2)c(O)c2n1CCCC2 [2-[4-(4-Phenyl-piperazin-1-yl)-butyl]-tetrahydro-imidazo[1,5-a]pyridine-1,3-dione]	> 1000	–
COc1ccccc1N1CCN(Cn2c(O)c3n(c2=O)CCCC3)CC1 [2-[4-(2-Methoxy-phenyl)-piperazin-1-ylmethyl]-tetrahydro-imidazo[1,5-a]pyridine-1,3-dione]	> 10000	–
O=c1n(CN2CCN(c3cccc(Cl)c3)CC2)c(O)c2n1CCCC2 [2-[4-(3-Chloro-phenyl)-piperazin-1-ylmethyl]-tetrahydro-imidazo[1,5-a]pyridine-1,3-dione]	> 10000	–
O=c1n(CCCCN2CCN(c3ccc([N+](=O)[O-])cc3)CC2)c(O)c2n1CCC2	> 1000	> 1000
O=c1n(CCN2CCN(c3ccc([N+](=O)[O-])cc3)CC2)c(O)c2n1CCC2 [2-{2-[4-(4-Nitro-phenyl)-piperazin-1-yl]-ethyl}-tetrahydro-pyrrolo[1,2-c]imidazole-1,3-dione]	> 10000	> 10000
O=c1n(CN2CCN(c3cccc(C(F)(F)F)c3)CC2)c(O)c2n1CCCC2 [2-[4-(3-Trifluoromethyl-phenyl)-piperazin-1-ylmethyl]-tetrahydro-imidazo[1,5-a]pyridine-1,3-dione]	> 1000	–
O=c1n(CN2CCN(c3ccccc3)CC2)c(O)c2n1CCC2 [2-(4-Phenyl-piperazin-1-ylmethyl)-tetrahydro-pyrrolo[1,2-c]imidazole-1,3-dione]	> 10000	–
O=c1n(CCCCN2CCN(c3ccc(F)cc3)CC2)c(O)c2n1CCC2 [2-{4-[4-(4-Fluoro-phenyl)-piperazin-1-yl]-butyl}-tetrahydro-pyrrolo[1,2-c]imidazole-1,3-dione]	> 1000	–
O=c1n(CN2CCN(c3ccc(F)cc3)CC2)c(O)c2n1CCC2 [2-[4-(4-Fluoro-phenyl)-piperazin-1-ylmethyl]-tetrahydro-pyrrolo[1,2-c]imidazole-1,3-dione]	> 10000	–
O=c1n(CCN2CCN(c3ccccc3)CC2)c(O)c2n1CCC2 [2-[2-(4-Phenyl-piperazin-1-yl)-ethyl]-tetrahydro-pyrrolo[1,2-c]imidazole-1,3-dione]	> 1000	> 1000
O=c1n(CCN2CCN(c3ccccc3)CC2)c(O)c2n1CCCC2 [2-[2-(4-Phenyl-piperazin-1-yl)-ethyl]-tetrahydro-imidazo[1,5-a]pyridine-1,3-dione]	> 1000	> 1000
O=c1n(CCCN2CCN(c3ccc([N+](=O)[O-])cc3)CC2)c(O)c2n1CCC2 [2-{3-[4-(4-Nitro-phenyl)-piperazin-1-yl]-propyl}-tetrahydro-pyrrolo[1,2-c]imidazole-1,3-dione]	> 10000	> 10000
O=c1n(CN2CCN(c3cccc(Cl)c3)CC2)c(O)c2n1CCC2 [2-[4-(3-Chloro-phenyl)-piperazin-1-ylmethyl]-tetrahydro-pyrrolo[1,2-c]imidazole-1,3-dione]	> 10000	–
O=c1n(CCCN2CCN(c3cccc(C(F)(F)F)c3)CC2)c(O)c2n1CCC2 [2-{3-[4-(3-Trifluoromethyl-phenyl)-piperazin-1-yl]-propyl}-tetrahydro-pyrrolo[1,2-c]imidazole-1,3-dione]	> 1000	–
O=c1n(CCN2CCN(c3cccc(C(F)(F)F)c3)CC2)c(O)c2n1CCCC2 [2-{2-[4-(3-Trifluoromethyl-phenyl)-piperazin-1-yl]-ethyl}-tetrahydro-imidazo[1,5-a]pyridine-1,3-dione]	> 1000	–

Source: BindingDB's records for doi:10.1021/jm960416g (Universidad Complutense, 1996)
